According to patent publication US20260097036A1 (Kadmon Corporation, LLC, priority 2022, published 2026):
“And” between values parts separate entries of the source, which are not always exact repeats. Equal values may be shown once. Read-outs that look alike come from different tables or passages of the source. Blank lines part the entries; values can stand above or below the compound they belong to.

What was measured:
[1] = Part 2 relative bioavailability and food effect, plasma PK; assay type: in vivo, human; details: for Tlag / Tmax / AUC (0-24) / AUC (0-last) / Cmax / Lambda-z / T1/2 / median Tmax / AUC % extrap / half-life / AUC(0-inf) / AUC(0-t): plasma; for peak (Cmax) and total exposure (AUC), liquid formulation vs tablet: both in the fed state, GMR comparison; for food effect on exposure, fed vs fasted: oral liquid formulation
Method: Subjects underwent preliminary screening procedures to determine their eligibility for Part 2 of the study at the screening visit (Day −28 to Day −2 of Part 2). Subjects who took part in Part 1 of the study were permitted to take part in Part 2.
Three different regimens (G, H, and I), were used over the three periods. In Regimen G, belumosudil was administered in Tablet form (reference); and in Regimens H and I, belumosudil was administered in the form of Oral Liquid Formulation.
In Period 1, Day 1: subjects were randomized prior to administration of the first dose of IMP to 1 of 6 treatment sequences (GHI, HIG, IGH, IHG, GIH and HGI) with 3 subjects assigned to each treatment sequence. On Day 1 of each study period (periods 1, 2 and 3), subjects received the regimens in Table 36:
Regimen H was administered to subjects as a flavorless low sucralose liquid formulation in a fasted state, and Regimens G and I were administered to subjects in a fed state. Regimen G was administered with a total of 240 mL of water. For Regimens H and I, immediately after IMP administration, subjects consumed water to a total volume of 240 mL (including the dosing volume).
Subjects received a single dose of IMP in the morning of Day 1 following an overnight fast of a minimum of 10 h (Regimen H, fasted state) or following a standard breakfast (Regimens G and I, fed state). Blood samples were collected at regular intervals for PK analysis. Following administration of Regimen H, subjects completed a written taste/palatability questionnaire individually and privately.
Subjects were resident in the clinical unit for 10 consecutive nights that covered all 3 treatment periods. All subjects remained on site until 72 h post-final dose for safety and PK assessments. There was a minimum washout of 3 days between each IMP administration. To ensure the ongoing wellbeing of the subjects, a follow-up phone call took place 3 to 7 days post-final dose. If a subject reported any AEs after discharge which represented a cause for concern, they were required to attend the clinical unit for a follow-up assessment. This would have been an unscheduled visit.

[2] = cited from earlier work
[3] = particle size distribution, Sympatec Helos wet dispersion; assay type: physicochemical; details: 40 mg/mL in water, R3 and R5 lens
Method: Samples were assessed using the Sympatec Helos Particle Size Analyzer using the generic method for wet dispersions as outlined below: • R5 Lens and R3 Lens • Sample added until 10-15% Copt achieved • Method run producing 3 replicates (sample stirred and sonicated throughout measurement run)
Samples were assessed using the Sympatec Helos Particle Size Analyzer, with sample added until 10-15% Copt was achieved. Two different lens assemblies were used giving the following ranges for particle size assessment, R3 Lens (0.5-175 μm) and the R5 Lens (4.8-875 μm). Three replicates were performed as part of the measurement run, with the sample stirred and sonicated as part of the method.

[4] = Regimen G: 200 mg Tablet, Fed, single oral dose, healthy male volunteers, median (range)
[5] = Regimen G: 200 mg Tablet, Fed, single oral dose, geometric mean (CV%)
[6] = Regimen G: 200 mg Tablet, Fed, single oral dose, geometric mean (CV%), individual values where n <= 2
[7] = Regimen H: 200 mg Liquid Formulation, Fasted, single oral dose, healthy male volunteers, median (range)
[8] = Regimen H: 200 mg Liquid Formulation, Fasted, single oral dose, geometric mean (CV%)
[9] = Regimen H: 200 mg Liquid Formulation, Fasted, single oral dose, geometric mean (CV%), individual values where n <= 2
[10] = Regimen I: 200 mg Liquid Formulation, Fed, single oral dose, healthy male volunteers, median (range)
[11] = Regimen I: 200 mg Liquid Formulation, Fed, single oral dose, geometric mean (CV%)
[12] = Regimen I: 200 mg Liquid Formulation, Fed, single oral dose, geometric mean (CV%), individual values where n <= 2

Compound: O=C([O-])c1ccccc1.[Na+] [Sodium Benzoate]
- ADI ([2]; JECFA (1996)): 2-5. The JECFA (1996) has set an ADI of up to 5 mg/kg body- mg/kg body-weight

Compound: OC[C@H]1O[C@H](O[C@]2(CCl)O[C@H](CCl)[C@@H](O)[C@@H]2O)[C@H](O)[C@@H](O)[C@H]1Cl [Sucralose]
- ADI ([2]; set in 2000): An ADI of up to 15 mg/kg body weight was set in 2000. In

Compound: CC(C)NC(=O)COc1cccc(-c2nc(Nc3ccc4[nH]ncc4c3)c3ccccc3n2)c1 [jet-milled belumosudil]
- PSD of wet dispersion in sterile water for irrigation [3]: poor results with readings that were inconsistent between the measurement runs

Continued, in another order:

- Tlag [1, 4]: 1.00 h
- Tmax [1, 4]: 2.00 h
- AUC (0-24) [1, 5]: 45.3 (63.9%) [n = 15] ng · h/mL
- AUC (0-last) [1, 5]: 42.7 (50.7%) [n = 15] ng · h/mL
- Cmax [1, 5]: 22.3 ng/mL
- Lambda-z [1, 6]: 0.24 h⁻¹ and 0.38 h⁻¹
- T1/2 [1, 6]: 1.81 h and 2.88 h
- Tlag [1, 7]: 0.00 (0.00-1.00) [n = 17] h
- Tmax [1, 7]: 1.00 (0.500-1.50) [n = 17] h
- AUC (0-24) [1, 8]: 34.9 (104.8%) [n = 12] ng · h/mL
- AUC (0-last) [1, 8]: 30.3 (70.9%) [n = 12] ng · h/mL
- Cmax [1, 8]: 19.0 (41.7%) [n = 17] ng/mL
- Lambda-z [1, 9]: 0.26 h⁻¹ and 0.3 h⁻¹
- T1/2 [1, 9]: 2.28 h and 2.67 h
- Tlag [1, 10]: 0.500 (0.00-1.00) [n = 17] h
- Tmax [1, 10]: 1.50 (0.500-3.00) [n = 17] h
- AUC (0-24) [1, 11]: 49.4 (83.1%) [n = 17] ng · h/mL
- AUC (0-last) [1, 11]: 37.9 (53.2%) [n = 17] ng · h/mL
- Cmax [1, 11]: 19.4 (27.6%) [n = 17] ng/mL
- Lambda-z [1, 12]: 0.326 [n = 1] l/h
- T1/2 [1, 12]: 2.128 [n = 1] h
- food effect on exposure, fed vs fasted [1]: moderate increases in total exposure
- median Tmax ([1]; single oral 200 mg as liquid formulation (fed)): 1.5 h
- median Tmax ([1]; single oral 200 mg as tablet reference, fed, listed as KD025 ml): 2.00 h and 2 h
Compound: NC(=O)COc1cccc(-c2nc(Nc3ccc4[nH]ncc4c3)c3ccccc3n2)c1 [KD025m1]
- peak (Cmax) and total exposure (AUC), liquid formulation vs tablet ([1]; listed as KD025 ml): largely similar to that of the tablet reference

- Tlag [1, 4]: 1.00 h
- AUC % extrap [1, 5]: 5.607 (49.8%) [n = 8]
- Lambda-z [1, 5]: 0.281 (43.1%) [n = 8] 1/h
- Tlag [1, 7]: 0.00 h
- AUC % extrap [1, 8]: 4.453 (60.7%) [n = 10]
- Lambda-z [1, 8]: 0.277 (87.4%) [n = 10] 1/h
- Tlag [1, 10]: 0.00 h
- AUC % extrap [1, 11]: 5.388 (43.1%) [n = 10]
- Lambda-z [1, 11]: 0.273 (56.5%) [n = 10] 1/h
- peak (Cmax) and total exposure (AUC), liquid formulation vs tablet [1]: similar
- half-life ([1]; male, human, oral, 200 mg, tablet reference 200 mg, fed, read-out: geometric mean T1/2 (converted)): 2.47 h
- Tmax ([1]; male, human, po, 200 mg, Regimen G: 200 mg Tablet, Fed, single oral dose, healthy male volunteers, median (range), read-out: Tmax): 3 h
- AUC(0-inf) ([1]; male, human, po, 200 mg, Regimen G: 200 mg Tablet, Fed, single oral dose, geometric mean (CV%)): 1180 ng·h/mL
- half-life ([1]; male, human, po, 200 mg, Regimen G: 200 mg Tablet, Fed, single oral dose, geometric mean (CV%), individual values where n <= 2, read-out: T1/2 (converted)): 2.47 h
- AUC(0-t) ([1]; male, human, po, 200 mg, Regimen G: 200 mg Tablet, Fed, single oral dose, geometric mean (CV%), read-out: AUC (0-24)): 1280 ng·h/mL
- AUC(0-t) ([1]; male, human, po, 200 mg, Regimen G: 200 mg Tablet, Fed, single oral dose, geometric mean (CV%), read-out: AUC (0-last)): 1200 ng·h/mL
- Cmax ([1]; male, human, po, 200 mg, Regimen G: 200 mg Tablet, Fed, single oral dose, geometric mean (CV%), read-out: Cmax): 406 ng/mL
- Tmax ([1]; male, human, po, 200 mg, Regimen H: 200 mg Liquid Formulation, Fasted, single oral dose, healthy male volunteers, median (range), read-out: Tmax): 1.5 h
- AUC(0-inf) ([1]; male, human, po, 200 mg, Regimen H: 200 mg Liquid Formulation, Fasted, single oral dose, geometric mean (CV%)): 1030 ng·h/mL
- half-life ([1]; male, human, po, 200 mg, Regimen H: 200 mg Liquid Formulation, Fasted, single oral dose, geometric mean (CV%), individual values where n <= 2, read-out: T1/2 (converted)): 2.51 h
- AUC(0-t) ([1]; male, human, po, 200 mg, Regimen H: 200 mg Liquid Formulation, Fasted, single oral dose, geometric mean (CV%), read-out: AUC (0-24)): 1130 ng·h/mL
- AUC(0-t) ([1]; male, human, po, 200 mg, Regimen H: 200 mg Liquid Formulation, Fasted, single oral dose, geometric mean (CV%), read-out: AUC (0-last)): 1080 ng·h/mL
- Cmax ([1]; male, human, po, 200 mg, Regimen H: 200 mg Liquid Formulation, Fasted, single oral dose, geometric mean (CV%), read-out: Cmax): 372 ng/mL
- Tmax ([1]; male, human, po, 200 mg, Regimen I: 200 mg Liquid Formulation, Fed, single oral dose, healthy male volunteers, median (range), read-out: Tmax): 2 h
- AUC(0-inf) ([1]; male, human, po, 200 mg, Regimen I: 200 mg Liquid Formulation, Fed, single oral dose, geometric mean (CV%)): 926 ng·h/mL
- half-life ([1]; male, human, po, 200 mg, Regimen I: 200 mg Liquid Formulation, Fed, single oral dose, geometric mean (CV%), individual values where n <= 2, read-out: T1/2 (converted)): 2.54 h
- AUC(0-t) ([1]; male, human, po, 200 mg, Regimen I: 200 mg Liquid Formulation, Fed, single oral dose, geometric mean (CV%), read-out: AUC (0-24)): 1180 ng·h/mL
- AUC(0-t) ([1]; male, human, po, 200 mg, Regimen I: 200 mg Liquid Formulation, Fed, single oral dose, geometric mean (CV%), read-out: AUC (0-last)): 1120 ng·h/mL
- Cmax ([1]; male, human, po, 200 mg, Regimen I: 200 mg Liquid Formulation, Fed, single oral dose, geometric mean (CV%), read-out: Cmax): 319 ng/mL
- Tmax ([1]; male, human, po, 200 mg, single oral 200 mg as liquid formulation (fed), read-out: median Tmax): 2 h
- Tmax ([1]; male, human, po, 200 mg, single oral 200 mg as tablet reference, fed, read-out: median Tmax): 3 h
- food effect on exposure, fed vs fasted [1]: No notable changes
Compound: O=C(O)COc1cccc(-c2nc(Nc3ccc4[nH]ncc4c3)c3ccccc3n2)c1 [KD025m2, 2-(3-(4-(1H-indazol-5-ylamino)quinazolin-2-yl)phenoxy) acetic acid]

- PSD of wet dispersion in sterile water for irrigation [3]: reproducibility between replicates
Compound: CC(C)NC(=O)COc1cccc(-c2nc(Nc3ccc4[nH]ncc4c3)c3ccccc3n2)c1 [pin-milled API]
